The values that follow come from patent publication US4220790A, “1-N,N-Dimethylcarbamyl-3-tert.butyl-5-methylthio-1,2,4-triazole” (priority 1977, dated 1980).

SMILES strings stand for the structures.

Experiment [1] concerns Southern Corn Rootworm. As to the kind of experiment: Southern corn rootworm (SCR) test in cups with corn. It counts as in vivo. The note with it: for Corn Rootworm (SCR) rating: nine days after treatment; for toxicity to corn rootworm (in words): comparative tests, nineteen compounds. The protocol: Method for Southern Corn Rootworm (SCR)
Three 5 oz. paper cups planted each with one kernel of DeKalb XL-361 corn are treated two days after planting with 10 ml of a 125 ppm solution of the candidate compound. Compounds with high efficacy are tested at lower concentrations. The experiment is a 4×5 factorial in a randomized complete block design with three replications. The tests are evaluated nine days after treatment. The roots are inspected under a dissecting microscope and rated as follows:
SCR Rating % Root Feeding Damage
So as to obtain more meaningful results, all tests are performed at the same time of day, whenever possible, usually in the forenoon. Temperature,illumination and humidity are the same in all tests. Atmospheric pressure is not controlled.
(§1) Results obtained with the novel insecticide of this invention at various concentrations of active chemical are tabulated below. The ratings given are for averages of three or more replicates. The oral lethal dose for 50 percent kill of laboratory rats is also recorded in the table. In conducting the toxicity tests on rats, 0.01 g of active chemical per ml in corn oil is employed as an additive to the diet of the animals.

Experiment [2] relates to Southern corn rootworm. Kind of experiment: Corn rootworm control under corn growing conditions, aging in soil, root damage rating. It counts as in vivo, Diabrotica undecimpunctata howardi. Details: AVERAGE ROOT DAMAGE RATINGS, Test No. 1 / AVERAGE ROOT DAMAGE RATINGS, Test No. 2 / AVERAGE ROOT DAMAGE RATINGS, Test No. 3 / AVERAGE ROOT DAMAGE RATINGS, Test No. 4 / AVERAGE ROOT DAMAGE RATINGS, Test No. 5: scale not given here. The note with it: for AVERAGE ROOT DAMAGE RATINGS, Test No. 3 / AVERAGE ROOT DAMAGE RATINGS, Test No. 4 / AVERAGE ROOT DAMAGE RATINGS, Test No. 5: 1.0 lb/A; for AVERAGE ROOT DAMAGE RATINGS, Test No. 3 / AVERAGE ROOT DAMAGE RATINGS, Test No. 1: aged 11 days; for AVERAGE ROOT DAMAGE RATINGS, Test No. 4: aged 26 days; for AVERAGE ROOT DAMAGE RATINGS, Test No. 5 / AVERAGE ROOT DAMAGE RATINGS, Test No. 2: aged 41 days; for AVERAGE ROOT DAMAGE RATINGS, Test No. 1 / AVERAGE ROOT DAMAGE RATINGS, Test No. 2: 10.0 lb/A. An excerpt: During this period of time in the soil the insecticide concentration diminishes as a result of leaching and the action of oxygen and soil microbes, so that it is difficult to maintain sufficient concentration to kill the rootworms. […] Less than a half dozen compounds enjoy substantial commercial success for this purpose. […] Carbofuran was therefore selected as a standard for comparison of his compound and closely related compounds for corn rootworm control under corn growing conditions. The organism used in these tests were Diabrotica undecimpunctata howardi, the Southern corn rootworm. The following method was employed in the tests:
Two parallel rows of corn (Pioneer 385 g×526 g untreated) were planted 2" apart down the center of Mirro No. C8509 aluminum bread pans, 5 kernels corn per row in greenhouse potting soil. The dimensions of the bread pans are 95/8"×51/2"×23/4" and lack holes in the bottoms of the pans. Each kernel of corn at time of germination was infested with 3-day-old SCR eggs, approximately 50 eggs per kernel. Test pans were treated by drenching 200 mls of test solution (Triton X-100, water and the test chemical dissolved in 5 mls acetone) on the surface of the soil in the bread pan. The schedule for treating, planting corn, and infesting with corn rootworm eggs were varied to test aging characteristics of the compounds in soil. The test pans were watered daily and held at 80° F. and 50% R.H. until rated. Root damage rating was done by the following rating sequence:
Rating % Root Damage Rating
The chemical compound which were tested were those of the structural formula [drawing 5] in which R represents tert.butyl, methyl, ethyl, propyl, butyl and isobutyl.
The comparison standard was carbofuran (2,3-dihydro-2,2-dimethyl-7-benzofuranyl methylcarbamate).
The tests were conducted during the months of July and August according to the time schedule as set forth below: […]

Experiment [3] has as its system insects of the orders Coleoptera and Orthoptera. Kind of experiment: Effectiveness against insects of the orders Coleoptera and Orthoptera. It counts as in vivo.
In experiment [4] the test system is two-spotted mites. As to the kind of experiment: Spray test on two-spotted mites (TSM). Details: species or system two-spotted mite. The note with it: in vivo. The method, then:
Method for Mites, Aphids, Bean Beetles and Army Worms
Three 5 oz. paper cups containing Henderson dwarf lima bean plants and one 5 oz. paper cup containing Orange Gem nasturtiums, all growing in vermiculite, are placed on a turntable and sprayed to thorough wetness with 25 ml of a solution of the candidate chemical at the appropriate concentration. Nasturtiums were already infested with 50-100 bean aphids (BA). A bean plant in one paper cup was already infested with 50-100 two-spotted mites (TSM). Leaves from the two remaining bean plants are removed following spraying and placed in disposable petri dishes with 5 southern armyworm (SA) larvae in one petri dish, and 5 Mexican bean beetle (MBB) larvae in the other petri dish. The rating is done approximately 48 hours after spraying as follows:
as §1

As to `CCc1nc(SC)n(C(=O)N(C)C)n1` [Example XVI], the “Corn Rootworm (SCR) rating” value was found to be 0.5 in experiment [1] (3 ppm), 2.5 in experiment [1] (12 ppm), 3.5 in experiment [1] (25 ppm) and 3.7 in experiment [1] (100 ppm). Moreover, in experiment [1] (any concentration), the “total kill of corn rootworm (in words)” value is listed as “failed to give a total kill at any concentration”. Besides, the “toxicity to corn rootworm (in words)” value in experiment [1] is “displayed toxicity to corn rootworm”.
Regarding `CNC(=O)Oc1cccc2c1OC(C)(C)C2` [Carbofuran, 2,3-dihydro-2,2-dimethyl-7-benzofuranyl methylcarbamate], in experiment [2], the “AVERAGE ROOT DAMAGE RATINGS, Test No. 3” value was found to be 4.3; the “AVERAGE ROOT DAMAGE RATINGS, Test No. 4” value came to 3.8; the “AVERAGE ROOT DAMAGE RATINGS, Test No. 5” value is on record as 4.7; the “AVERAGE ROOT DAMAGE RATINGS, Test No. 1” value worked out at 4.8. For the same compound, in experiment [2], the “AVERAGE ROOT DAMAGE RATINGS, Test No. 2” value is 4.1.
On to `CSc1nc(C(C)(C)C)nn1C(=O)N(C)C` [1-N,N-Dimethylcarbamyl-3-tert.butyl-5-methylthio-1,2,4-triazole], for which the “insecticidal effectiveness (in words)” value in experiment [3] is “effective against insects of the orders Coleoptera and Orthoptera”. Further, the “Corn Rootworm (SCR) rating” value in experiment [1] (3 ppm, listed as U.S.Ser.No. 842,760) is reported as 3.0. Moreover, the “Corn Rootworm (SCR) rating” value in experiment [1] (6 ppm) came to 3.3. Also, the “toxicity to corn rootworm (in words)” value in experiment [1] is on record as “displayed toxicity to corn rootworm”. In experiment [4], the “miticidal activity (in words)” value is reported as “absence of miticidal activity”. Also, in experiment [2], the “AVERAGE ROOT DAMAGE RATINGS, Test No. 3” value is 4.5; the “AVERAGE ROOT DAMAGE RATINGS, Test No. 4” value was found to be 4.1; the “AVERAGE ROOT DAMAGE RATINGS, Test No. 5” value stood at 4.6; the “AVERAGE ROOT DAMAGE RATINGS, Test No. 1” value is given as 5.0. The “AVERAGE ROOT DAMAGE RATINGS, Test No. 2” value in experiment [2] turned out to be 4.3. For the same compound, the “duration of efficacy against corn rootworm (in words)” value in experiment [2] (compared with carbofuran) was “efficacy of long duration, comparable to the commercial insecticide”.
On to `CCCc1nc(SC)n(C(=O)N(C)C)n1` [R' = propyl], for which, in experiment [2], the “AVERAGE ROOT DAMAGE RATINGS, Test No. 3” value was 0.3; the “AVERAGE ROOT DAMAGE RATINGS, Test No. 4” value came to 1.8; the “AVERAGE ROOT DAMAGE RATINGS, Test No. 5” value stood at 2.3; the “AVERAGE ROOT DAMAGE RATINGS, Test No. 1” value worked out at 4.4. Further, the “AVERAGE ROOT DAMAGE RATINGS, Test No. 2” value in experiment [2] turned out to be 3.1.
For the compound `CSc1nc(C)nn1C(=O)N(C)C` [R' = methyl], in experiment [2], the “AVERAGE ROOT DAMAGE RATINGS, Test No. 3” value is listed as 0 (100); the “AVERAGE ROOT DAMAGE RATINGS, Test No. 4” value is recorded as 0.1; the “AVERAGE ROOT DAMAGE RATINGS, Test No. 5” value amounted to 0.5; the “AVERAGE ROOT DAMAGE RATINGS, Test No. 1” value was 2.7. Further, the “AVERAGE ROOT DAMAGE RATINGS, Test No. 2” value in experiment [2] is listed as 0 (100).
For `CCCCc1nc(SC)n(C(=O)N(C)C)n1` [R' = butyl], in experiment [2], the “AVERAGE ROOT DAMAGE RATINGS, Test No. 3” value is on record as 0 (100); the “AVERAGE ROOT DAMAGE RATINGS, Test No. 4” value worked out at 0.4; the “AVERAGE ROOT DAMAGE RATINGS, Test No. 5” value is 0.5; the “AVERAGE ROOT DAMAGE RATINGS, Test No. 1” value is given as 4.4. In addition, in experiment [2], the “AVERAGE ROOT DAMAGE RATINGS, Test No. 2” value came to 3.6.
For the compound `CCc1nc(SC)n(C(=O)N(C)C)n1` [R' = ethyl], in experiment [2], the “AVERAGE ROOT DAMAGE RATINGS, Test No. 3” value is on record as 0 (100); the “AVERAGE ROOT DAMAGE RATINGS, Test No. 4” value is recorded as 1.1; the “AVERAGE ROOT DAMAGE RATINGS, Test No. 5” value came out at 1.0; the “AVERAGE ROOT DAMAGE RATINGS, Test No. 1” value is 4.3. In addition, in experiment [2], the “AVERAGE ROOT DAMAGE RATINGS, Test No. 2” value is listed as 3.0.
Turning to `CSc1nc(CC(C)C)nn1C(=O)N(C)C` [R' = isobutyl], in experiment [2], the “AVERAGE ROOT DAMAGE RATINGS, Test No. 3” value is 0.6; the “AVERAGE ROOT DAMAGE RATINGS, Test No. 4” value came to 0.3; the “AVERAGE ROOT DAMAGE RATINGS, Test No. 5” value came to 2.3; the “AVERAGE ROOT DAMAGE RATINGS, Test No. 1” value worked out at 4.8. Besides, in experiment [2], the “AVERAGE ROOT DAMAGE RATINGS, Test No. 2” value turned out to be 3.6.
